Read-outs that look alike come from different tables or passages of the source.

One may read the IC50 as the midpoint of a concentration-inhibition curve.

Assay [1] concerns IL-15 induced STAT5 phosphorylation in human whole blood lymphocytes. Briefly: HWB IL-15 induced STAT5 phosphorylation assay. It counts as cell-based. As to conditions: Lymphocyte, IL-15 stimulated, read-out: HWB-IL15-pSTAT5 IC50. How it is done: HWB IL-15 Induced STAT5 Phosphorylation Assay
After mixing and incubating for 45 minutes at 37° C., 5 μl D-PBS (unstimulated control) or 20× stocks of 5 μl human IL-15 (final concentration is 50 ng/ml) were added, and mixed three times. After incubating 15 minutes at 37° C., 1× Lyse/Fix Buffer (BD Phosflow 5× Lyse/Fix Buffer) was added to all wells at 1000 μl/well, then incubated for 20 minutes at 37° C. and spun 5 mins at 1200 rpm. […] Following incubating at 4° C. over night, all the samples were transferred to 96-well polypropylene U-bottom plate, and checked by flow cytometry gated on total lymphocytes.

The subject of assay [2] is IL-15 induced P-STAT5 in human PBMC. The experiment in a line: PBMC IL-15 induced P-STAT5. As to conditions: human PBMC, IL-15 stimulated, read-out: PBMC IL15-pSTAT5 IC50. Format: cell-based. Here is the method: PBMC IL-15 Induced P-STAT5
Frozen human PBMC (200-250 million cells/vial) was thawed at 37° C. The cells were transferred to 10 mL warm medium in a 50-mL conical tube, and centrifuged at 1,200 RPM at room temperature for 5 min. The supernatant was aspirated. […] After adding 47 ml D-PBS (37° C.) to PBMC/FBS suspension, centrifuging at 1,200 RPM at room temperature for 5 min, and aspirating the supernatant, the cells were resuspended in 20 mL warm RPMI medium. Ninety μL of cell suspension were pipetted per well in a 96-well, deep-well, V-bottom plate, and the plate was incubated at 37° C. for 30 min. […] After adding 0.8 mL staining buffer per well, the plates were centrifuged at 1,200 RPM (Beckman GS-6R or Sorvall Legend) at room temperature for 5 min, and again the supernatant was aspirated using a 8-channel or 12-channel manifold. The plate was vortexed, and 0.35 mL 90% methanol/10% H2O (−20° C.) was added per well, and the plate incubated on ice for 20 min. After again adding 0.8 mL staining buffer per well, the plates were centrifuged at 1,200 RPM (Beckman GS-6R or Sorvall Legend) at room temperature for 5 min, and again the supernatant was aspirated using a 8-channel or 12-channel manifold, and then 0.8 mL Staining buffer was added per well. After once again adding 0.8 mL staining buffer per well, the plates were centrifuged at 1,200 RPM (Beckman GS-6R or Sorvall Legend) at room temperature for 5 min, and again the supernatant was aspirated using a 8-channel or 12-channel manifold. […] Samples of 250 μL/well were transferred to a 96-well U-bottom plate, and the FACS analysis was performed gating on total lymphocytes. Samples were analyzed using a BD Calibur™ or BD FACSCanto™ flow cytometer equipped with the BD High Throughput Sampler.

Another assay has as its target JAK3 enzyme (Homo sapiens (Human), UniProt P52333). The experiment in a line: JAK Caliper Enzyme Assay at 4 μM or 1 mM ATP. Format: biochemical.
[3] abbreviates: read-out: JAK3 (4 μM ATP) IC50, 4 μM ATP.
[4] abbreviates: read-out: JAK3 (1 mM ATP) IC50, 1 mM ATP.

Sequence of JAK3 enzyme (P52333 whole entry, species assumed): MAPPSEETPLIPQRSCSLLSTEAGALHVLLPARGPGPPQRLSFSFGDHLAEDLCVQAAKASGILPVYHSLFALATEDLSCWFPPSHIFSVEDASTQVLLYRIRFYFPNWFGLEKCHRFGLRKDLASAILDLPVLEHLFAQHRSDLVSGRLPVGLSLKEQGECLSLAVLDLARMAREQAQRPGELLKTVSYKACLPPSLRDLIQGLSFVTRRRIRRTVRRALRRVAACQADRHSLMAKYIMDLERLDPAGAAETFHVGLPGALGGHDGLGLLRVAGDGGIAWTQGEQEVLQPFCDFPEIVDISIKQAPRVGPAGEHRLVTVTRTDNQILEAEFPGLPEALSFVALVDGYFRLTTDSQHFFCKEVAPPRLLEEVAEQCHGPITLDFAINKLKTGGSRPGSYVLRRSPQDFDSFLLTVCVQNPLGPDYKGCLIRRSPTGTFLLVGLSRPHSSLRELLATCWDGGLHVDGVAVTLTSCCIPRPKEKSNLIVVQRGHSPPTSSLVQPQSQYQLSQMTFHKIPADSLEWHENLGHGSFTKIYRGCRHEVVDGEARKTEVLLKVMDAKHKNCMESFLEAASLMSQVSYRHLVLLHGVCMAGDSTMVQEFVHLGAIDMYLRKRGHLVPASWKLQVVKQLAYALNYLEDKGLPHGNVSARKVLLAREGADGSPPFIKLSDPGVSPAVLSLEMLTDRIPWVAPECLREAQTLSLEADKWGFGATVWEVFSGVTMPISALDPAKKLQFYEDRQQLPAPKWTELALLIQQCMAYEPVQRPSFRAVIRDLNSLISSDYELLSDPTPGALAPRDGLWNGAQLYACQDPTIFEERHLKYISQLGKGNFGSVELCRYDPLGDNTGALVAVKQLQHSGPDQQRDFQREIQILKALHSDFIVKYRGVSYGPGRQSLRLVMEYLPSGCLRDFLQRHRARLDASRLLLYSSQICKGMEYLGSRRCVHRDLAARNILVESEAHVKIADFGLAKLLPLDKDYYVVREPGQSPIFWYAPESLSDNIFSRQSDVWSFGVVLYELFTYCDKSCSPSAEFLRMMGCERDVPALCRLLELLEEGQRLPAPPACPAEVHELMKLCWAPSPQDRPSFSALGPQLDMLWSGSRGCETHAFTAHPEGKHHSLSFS

Regarding `C=CC(=O)N1CCC(Nc2cnc3[nH]cc(C(=O)NCCCCCCCCC#N)c3n2)CC1` [Example 260, 2-[(1-acryloylpiperidin-4-yl)amino]-N-(8-cyanooctyl)-5H-pyrrolo[2,3-b]pyrazine-7-carboxamide], the 50% inhibitory concentration (IC50) in assay [1] was above 10000 nM.
Take `C=CC(=O)N1CCC[C@@H](Nc2ncnc3[nH]cc(-c4cnn(C)c4)c23)C1` [Example 28, 1-[(3R)-3-{[5-(1-methyl-1H-pyrazol-4-yl)-7H-pyrrolo[2,3-d]pyrimidin-4-yl]amino}piperidin-1-yl]prop-2-en-1-one]: the figures for the 50% inhibitory concentration (IC50) (in assay [2]; on JAK3 enzyme (setting [3]); on JAK3 enzyme (setting [4])) were above 10000 nM, 48.2 nM and 358 nM, respectively.
Taken in the same sequence, the figures for `C=C(COC)C(=O)N1CCC[C@@H](Nc2ncnc3[nH]ccc23)C1` [Example 94, 2-(methoxymethyl)-1-[(3R)-3-(7H-pyrrolo[2,3-d]pyrimidin-4-ylamino)piperidin-1-yl]prop-2-en-1-one] were above 10000 nM, 802 nM and above 10000 nM.
Turning to `C=CC(=O)N1CCC(Nc2cnc3[nH]cc(-c4ccc(C)nc4)c3n2)CC1` [Example 199, 1-(4-{[7-(6-methylpyridin-3-yl)-5H-pyrrolo[2,3-b]pyrazin-2-yl]amino}piperidin-1-yl)prop-2-en-1-one], the results for the half-maximal inhibitory concentration (IC50) (in assay [1]; on JAK3 enzyme (setting [3]); on JAK3 enzyme (setting [4])) were above 10000 nM, 1.2 nM and 101 nM, respectively.
`C=CC(=O)N1C[C@@H]2C(Nc3cnc4[nH]cc(C(=O)NC(C)C)c4n3)[C@@H]2C1` (stereo partly drawn) [Example 189, 2-{[(1R,5S,6s)-3-acryloyl-3-azabicyclo[3.1.0]hex-6-yl]amino}-N-(propan-2-yl)-5H-pyrrolo[2,3-b]pyrazine-7-carboxamide]: the IC50 in assay [1] is above 10000 nM; at JAK3 enzyme (setting [3]), 1.1 nM; on JAK3 enzyme (setting [4]), 198 nM.
`C=CC(=O)N1CCC(Oc2cnc3[nH]cc(-c4cncc(F)c4)c3n2)CC1` [Example 213, 1-(4-{[7-(5-fluoropyridin-3-yl)-5H-pyrrolo[2,3-b]pyrazin-2-yl]oxy}piperidin-1-yl)prop-2-en-1-one]: the IC50 in assay [1] is above 10000 nM; on JAK3 enzyme (setting [3]), 0.8 nM; on JAK3 enzyme (setting [4]), 69.4 nM.
For the molecule `C=CC(=O)N1CCC(Oc2cnc3[nH]cc(C(=O)NC(C)(C)C)c3n2)CC1` [Example 338, 2-((1-Acryloylpiperidin-4-yl)oxy)-N-(tert-butyl)-5H-pyrrolo[2,3-b]pyrazine-7-carboxamide], the IC50 is above 10000 nM in assay [1], 0.4 nM at JAK3 enzyme (setting [3]) and 115 nM at JAK3 enzyme (setting [4]).
Take `CN(C)C/C=C/C(=O)N1CC[C@@H]2CCN(c3ncnc4[nH]ccc34)[C@@H]2C1` [Example 82, (2E)-4-(dimethylamino)-1-[(3aS,7aS)-1-(7H-pyrrolo[2,3-d]pyrimidin-4-yl)octahydro-6H-pyrrolo[2,3-c]pyrdin-6-yl]but-2-en-1-one]: the IC50 in assay [2] was above 7300 nM; at JAK3 enzyme (setting [3]), 57.2 nM; at JAK3 enzyme (setting [4]) it was 5290 nM.
With `C=CC(=O)N1CC[C@@H]2OCCN(c3ncnc4[nH]ccc34)[C@H]2C1` [Example 119, 1-[(4aS,8aS)-4-(7H-Pyrrolo[2,3-d]pyrimidin-4-yl)hexahydro-2H-pyrido[4,3-b][1,4]oxazin-6 (5H)-yl]prop-2-en-1-one], the half-maximal inhibitory concentration (IC50) in assay [2] was above 10000 nM.
In the case of `C=CC(=O)N1CC[C@@H](O)[C@@H](Nc2ncnc3[nH]ccc23)C1` (racemic) [Example 64, 1-[(3S,4R)-4-Hydroxy-3-(7H-pyrrolo[2,3-d]pyrimidin-4-ylamino)piperidin-1-yl]prop-2-en-1-one], the IC50 in assay [2] came to 4640 nM; at JAK3 enzyme (setting [3]), 5.3 nM; on JAK3 enzyme (setting [4]) it was 996 nM.
Consider `C=CC(=O)N[C@H]1C[C@@H](Nc2cnc3[nH]cc(C(=O)NC(C)C)c3n2)C1` [Example 184, 2-{[cis-3-(acryloylamino)cyclobutyl]amino}-N-(propan-2-yl)-5H-pyrrolo[2,3-b]pyrazine-7-carboxamide], for which the IC50 was above 10000 nM in assay [1], 1.5 nM at JAK3 enzyme (setting [3]) and 210 nM on JAK3 enzyme (setting [4]).
As for `C=CC(=O)N1CCC[C@@H](Nc2ccnc3[nH]cc(C)c23)C1` [Example 47, 1-{(3R)-3-[(3-methyl-1H-pyrrolo[2,3-b]pyridin-4-yl)amino]piperidin-1-yl}prop-2-en-1-one], the concentration for half-maximal inhibition (IC50) turned out to be 1080 nM in assay [2], 4 nM at JAK3 enzyme (setting [3]) and 608 nM on JAK3 enzyme (setting [4]).
Taken in the same sequence, the figures for `C=CC(=O)c1c[nH]c2ncnc(N[C@H]3CN(C(=O)C=C)CC[C@H]3F)c12` [Example 120, 1-(4-{[(3S,4R)-1-Acryloyl-4-fluoropiperidin-3-yl]amino}-7H-pyrrolo[2,3-d]pyrimidin-5-yl)prop-2-en-1-one] were above 10000 nM, 692 nM and above 10 nM.
For `C=CC(=O)N1C[C@H](C)C[C@@H](Nc2ncnc3[nH]ccc23)C1` (racemic) [Example 65, Rac-1-((3R,5R)-3-((7H-Pyrrolo[2,3-d]pyrimidin-4-yl)amino)-5-methylpiperidin-1-yl)prop-2-en-1-one], the IC50 in assay [1] was above 10000 nM.
Take `C=CC(=O)N1CCC(Oc2cnc3[nH]cc(-c4ccc(F)nc4)c3n2)CC1` [Example 226, 1-(4-{[7-(6-fluoropyridin-3-yl)-5H-pyrrolo[2,3-b]pyrazin-2-yl]oxy}piperidin-1-yl)prop-2-en-1-one]: the values for the IC50 (in assay [2]; on JAK3 enzyme (setting [3]); at JAK3 enzyme (setting [4])) were 699 nM, 1 nM and 91 nM, respectively.
Turning to `C=CC(=O)N1CCC(Oc2cnc3[nH]cc(-c4cncc(C#N)c4)c3n2)CC1` [Example 225, 5-{2-[(1-acryloylpiperidin-4-yl)oxy]-5H-pyrrolo[2,3-b]pyrazin-7-yl}pyridine-3-carbonitrile], the IC50 in assay [2] was 2910 nM; at JAK3 enzyme (setting [3]), 1.4 nM; on JAK3 enzyme (setting [4]), 120 nM.
As for `C=CC(=O)N1CC[C@]2(C)CCN(c3ncnc4[nH]ccc34)[C@@H]2C1` [Example 59, 1-((3aS,7aS)-3a-Methyl-1-(7H-pyrrolo[2,3-d]pyrimidin-4-yl)hexahydro-1H-pyrrolo[2,3-c]pyridin-6 (2H)-yl)prop-2-en-1-one], the IC50 in assay [2] (Homo sapiens, PBMC) was above 2550 nM; on JAK3 enzyme (setting [3]), 3.2 nM; on JAK3 enzyme (setting [4]), 403 nM.
In the case of `C=CC(=O)N1C[C@H](OC)C[C@@H](N(C)c2ncnc3[nH]ccc23)C1` [Example 78, 1-{(3R,5R)-3-Methoxy-5-[methyl(7H-pyrrolo[2,3-d]pyrimidin-4-yl)amino]piperidin-1-yl}prop-2-en-1-one], the IC50 was above 10000 nM in assay [2], 387 nM at JAK3 enzyme (setting [3]) and above 10000 nM at JAK3 enzyme (setting [4]).
Regarding `C=CC(=O)N1CC[C@@H]2CCN(c3ncnc4[nH]cc(CCOC)c34)[C@@H]2C1` [Example 89, 1-{(3aS,7aS)-1-[5-(2-Methoxyethyl)-7H-pyrrolo[2,3-d]pyrimidin-4-yl]octahydro-6H-pyrrolo[2,3-c]pyridin-6-yl}prop-2-en-1-one], the IC50 in assay [2] is above 6160 nM; on JAK3 enzyme (setting [3]), 35.2 nM; on JAK3 enzyme (setting [4]) it was 3940 nM.
For the molecule `C=C(CO)C(=O)N1CCC[C@@H](Nc2ncnc3[nH]ccc23)C1` [Example 93, 2-(hydroxymethyl)-1-[(3R)-3-(7H-pyrrolo[2,3-d]pyrimidin-4-ylamino)piperidin-1-yl]prop-2-en-1-one], the IC50 in assay [2] is above 10000 nM; on JAK3 enzyme (setting [3]) it was 703 nM; at JAK3 enzyme (setting [4]), above 10000 nM.
In the case of `C=CC(=O)N1CC[C@H](Nc2cnc3[nH]ccc3n2)C1` [Example 336, (S)-1-(3-((5H-Pyrrolo[2,3-b]pyrazin-2-yl)amino)pyrrolidin-1-yl)prop-2-en-1-one], the concentration for half-maximal inhibition (IC50) is above 10000 nM in assay [2], 30.6 nM at JAK3 enzyme (setting [3]) and 3400 nM on JAK3 enzyme (setting [4]).
In the case of `C=CC(=O)N1CC[C@@H](Nc2cnc3[nH]ccc3n2)C1` [Example 335, (R)-1-(3-((5H-Pyrrolo[2,3-b]pyrazin-2-yl)amino)pyrrolidin-1-yl)prop-2-en-1-one], the 50% inhibitory concentration (IC50) in assay [2] was above 10000 nM; at JAK3 enzyme (setting [3]), 622 nM.
Turning to `C=CC(=O)N1CCC(Nc2cnc3[nH]cc(C(=O)N[C@H]4CCC[C@H](CC#N)C4)c3n2)CC1` [Example 262, 2-[(1-acryloylpiperidin-4-yl)amino]-N-[(1S,3S)-3-(cyanomethyl)cyclohexyl]-5H-pyrrolo[2,3-b]pyrazine-7-carboxamide], in assay [1], the IC50 is above 10000 nM.

(Values after patent US20250134869A1, “Pyrrolo[2,3-d]pyrimidinyl, Pyrrolo[2,3-b]pyrazinyl and Pyrrolo[2,3-d]pyridinyl Acryla-mides” (Pfizer Inc, priority 2021, published 2025).)
